Source: US4686220A, “Substituted 2-[b-substituted-amino)-ethylamino]-1,4-naphthalenediones for treating asthma, allergic diseases and inflammation in warm-blooded animals” (American Cyanamid Company, priority 1985, dated 1987)
Where a name gives a salt, the structure may show the parent alone. Read-outs that look alike come from different tables or passages of the source.

Experiments:
[1] = system: Immunologically Stimulated Human Basophils; assay: Inhibition of Histamine Release from Immunologically Stimulated Human Basophils; assay type: cell-based; details: anti-IgE or antigen stimulated, 60 min, 37° C., read-out: ED50 (concentration which causes 50% inhibition of histamine release)
Method: The novel compounds of this invention have been tested by the procedure of Lichtenstein, L. M. and Osler, A. G., J. Exp. Med., 120, 507-530 (1964), which evaluates the ability of compounds to inhibit mediator (histamine) release from immunologically stimulated human basophils. 10X Concentrated Tris Buffer Dissolve 140.3 g of sodium chloride, 7.45 g of potassium chloride and 74.5 g of Trizma-Tris Pre-Set, Reagent Grade, pH 7.6, at 25° C. (Sigma Chemical Co.) in sufficient water to give a final volume of 2 liters. Human Albumin (Sigma Chemical Co.) (30 mg/ml) Calcium and Magnesium Stocks Made to 0.075M and 0.5M respectively, with calcium chloride dihydrate and magnesium chloride hexahydrate. Tris-A Buffer A 10 ml portion of 10X Tris Buffer and 1.0 ml of human albumin are diluted to 100 ml with water. Tris ACM Buffer A 10 ml portion of 10X Tris Buffer, 1.0 ml of human albumin, 0.8 ml of calcium stock and 0.2 ml of magnesium stock are diluted to 100 ml with water. Rabbit Antihuman IgE Behring Diagnostics (Generally used at 10 μg protein/ml final concentration.) House Dust Mite Extract (Dermatophagoides Farinae) Strength 1:100 (w:v) allergenic extract, Hollister-Stier Labs. Generally this is diluted 1:1000 to 1:10,000 (considering the vial as stock). Other Allergens Intradermal solutions or intramuscular preparations for hyposensitization, Hollister-Stier Labs. The final concentration used is on the order of 1 PNU/ml. Separation of Leukocytes from Human Blood and Challenge Eighty milliliters of blood is withdrawn from subjects with known histamine release to anti-IgE, ragweed antigen or other specific allergen, using four 20 ml heparinized tubes. This 80 ml of blood is mixed with 20 ml of saline containing 0.6 g of dextrose and 1.2 g of dextran. The blood is allowed to sediment at room temperature in two 50 ml polycarbonate centrifuge tubes until a sharp interface develops between the red cells and plasma (60-90 minutes). The plasma (top) layer from each tube is withdrawn by pipet and transferred to respective 50 ml polycarbonate tubes. The plasma is centrifuged for 8 minutes at 110×G at 4° C. The supernatant is carefully poured off as completely as possible and the cell button is resuspended in 2-3 ml of Tris-A buffer using a siliconized Pasteur pipet. The resuspension is accomplished by drawing the liquid gently in an out of the pipet, with the tip below the liquid, until an even suspension of cells is obtained. Sufficient Tris-A buffer is then added to bring the volume in the tube to about 45 ml and the tube is centrifuged at 110×G for 8 minutes at 4° C. The supernatant is poured off and the cell button is resuspended and centrifuged as described above. The supernatant is poured off and the cell button suspended in 2-3 ml of Tris-ACM buffer to make the final volume sufficient to allow addition to the reaction tubes. Reaction tubes containing anti-IgE or antigens, either alone or with test compound in a total volume of 0.2 ml are prepared and placed in a 37° C. bath. The cells are warmed to 37° C. and frequently swirled to ensure an even suspension, while 1.0 ml aliquots are added to each reaction tube. The tubes are then incubated for 60 minutes at 37° C., vortexing the tubes gently every 15 minutes to keep the cells evenly suspended. When the reaction is complete, the tubes are centrifuged at 4° C. for 10 minutes at 1500 rpm to sediment the cells. One ml aliquots of supernatant are transferred to 12 mm by 75 mm polyethylene tubes and 0.2 ml of 8% perchloric acid is added to each tube. Blanks and totals are included in each test. The blanks have cells and all reagents except antigen or anti-IgE. The totals contain 0.24 ml of 8% perchloric acid, one ml of cells and 0.2 ml of buffer. All samples are then centrifuged to remove the precipitate protein. Assay of Released Histamine by the Automated Fluorometric Method This automated method has been described by Siraganian, R. P., in Anal. Biochem., 57, 383 (1974) and J. Immunol. […]

Neutrophil Lipoxygenase = target: T1, Neutrophil Lipoxygenase (Cavia porcellus, UniProt A0A286X958); assay: Inhibition of Neutrophil Lipoxygenase from Immunologically Stimulated Guinea Pig Neutrophiles (LTB4 and 5-HETE); assay type: cell-based; details: 10 μg/ml, 100 μM arachidonic acid and 20 μM A23187, the lower the percentage, the more active
T1 construct: endogenous in cells; host or cells: guinea pig peritoneal neutrophils
T1 sequence (A0A286X958 1-674): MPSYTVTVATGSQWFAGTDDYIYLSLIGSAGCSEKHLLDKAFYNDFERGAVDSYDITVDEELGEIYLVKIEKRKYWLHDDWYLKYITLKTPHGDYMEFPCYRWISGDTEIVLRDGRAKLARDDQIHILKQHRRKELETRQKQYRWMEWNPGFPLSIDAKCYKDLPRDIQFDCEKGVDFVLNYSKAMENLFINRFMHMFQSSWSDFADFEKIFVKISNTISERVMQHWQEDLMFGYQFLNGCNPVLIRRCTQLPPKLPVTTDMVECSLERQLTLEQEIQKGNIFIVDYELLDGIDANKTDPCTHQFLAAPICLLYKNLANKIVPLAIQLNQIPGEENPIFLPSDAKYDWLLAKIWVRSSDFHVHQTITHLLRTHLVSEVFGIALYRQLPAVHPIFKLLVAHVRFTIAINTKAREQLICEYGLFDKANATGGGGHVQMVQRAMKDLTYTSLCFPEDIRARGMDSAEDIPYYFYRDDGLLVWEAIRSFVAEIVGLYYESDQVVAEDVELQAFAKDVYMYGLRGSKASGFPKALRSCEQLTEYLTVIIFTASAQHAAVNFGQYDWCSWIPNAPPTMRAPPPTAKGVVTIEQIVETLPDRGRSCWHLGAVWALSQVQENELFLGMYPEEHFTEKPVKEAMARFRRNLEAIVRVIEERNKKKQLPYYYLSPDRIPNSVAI
Method: In this assay 3×10^7 peritoneal neutrophils derived from guinea pigs were incubated at 37° C. in Dulbeccos buffer containing 50 mM tris buffer (pH 7.4). Five minutes before the addition of 100 μM arachidonic acid and 20 μM calcium ionophore (A23187), control vehicle or the test compounds were added to the neutrophils at a concentration of 10 μg/ml. Three minutes after the addition of arachidonic acid and calcium ionophore the total lipid was partitioned into chloroform after adjusting the pH to 3 with citric acid and the addition of equal parts of methanol and chloroform. The 5-HETE and LTB4 were resolved by HPLC using a 5 μM, 4×25 cm octadecyl silica column (IBM Instruments) with 70-80% methanol in water adjusted to pH 3.0 with acetic acid. As the mobile phase was pumped at 1.0 ml/minute, LTB4 and 5-HETE were detected by absorbance at 270 and 236 nm, respectively. LTB4 and 5-HETE were quantitated by comparison with the control and the results were expressed as a percent of control.

| Structure (SMILES) | 5-HETE, % of Control (Neutrophil Lipoxygenase) | LTB4, % of Control (Neutrophil Lipoxygenase) | IC50 ([1]; Homo sapiens, 1 h) | remaining activity at 10 µg/mL (Neutrophil Lipoxygenase; read-out: 5-HETE, % of Control) | remaining activity at 10 µg/mL (Neutrophil Lipoxygenase; read-out: LTB4, % of Control) | other results |
| --- | --- | --- | --- | --- | --- | --- |
| CCOC(=O)N1CCN(C2=C(Cl)C(=O)c3ccccc3C2=O)CC1 [Example 1, 4-(3-Chloro-1,4-dioxo-2-naphthyl)-1-piperazinecarboxylic acid, ethyl ester] | 0 % of Control | 0 % of Control | – | – | – | IC50 ([1]; ethyl ester): 5.5 µM |
| CN(CCN(C)C1=C(Cl)C(=O)c2ccccc2C1=O)Cc1ccccc1 [Example 2, 2-Chloro-3-[methyl[2-[methyl(phenylmethyl)amino]ethyl]amino]-1,4-naphthalenedione, hydrochloride] | – | – | 4 µM | – | – | – |
| O=C1C(Cl)=C(N2CCN(Cc3ccccc3)CC2)C(=O)c2ccccc21 [Example 5, 2-chloro-3-[4-(phenylmethyl)-1-piperazinyl]-1,4-naphthalenedione] | 0 % of Control | 0 % of Control | 10.4 µM | – | – | – |
| O=C1C(Cl)=C(N2CCN(CC(=O)N3CCOCC3)CC2)C(=O)c2ccccc21 [Example 6, 4-[[4-(3-chloro-1,4-dihydro-1,4-dioxo-2-naphthalenyl)-1-piperazinyl]acetyl]morpholine] | – | – | 20.6 µM | – | – | – |
| O=C1C(Cl)=C(N2CCN(CC(=O)N3CCCC3)CC2)C(=O)c2ccccc21 [Example 7, 1-[[4-(3-chloro-1,4-dihydro-1,4-dioxo-2-naphthalenyl)-1-piperazinyl]acetyl]pyrrolidine] | – | – | 14.9 µM | – | – | – |
| O=C1C(Cl)=C(N2CCN(c3ccccn3)CC2)C(=O)c2ccccc21 [Example 8, 2-chloro-3-[4-(2-pyridinyl)-1-piperazinyl]-1,4-naphthalenedione, hydrochloride] | – | – | 4.6 µM | 1.3% | 6.1% | – |
| CN(CCNCc1nc2ccccc2s1)C1=C(Cl)C(=O)c2ccccc2C1=O [Example 9, 2-[[2-(2-benzothiazolylmethylamino)ethyl]methylamino]-3-chloro-1,4-naphthalenedione] | – | – | 6.4 µM | 0.2% | 0% | – |
| CC1CN(C2=C(Cl)C(=O)c3ccccc3C2=O)CCN1 (centres unmarked) [Example 14, 2-chloro-3-(3-methyl-1-piperazinyl)-1,4-naphthalenedione] | – | – | 3 µM | – | – | – |
| Cl.O=C1C(Cl)=C(N2CCN(Cc3ccccc3)CC2)C(=O)c2ccccc21 [Example 15, 2-chloro-3-[4-(phenylmethyl)-1-piperazinyl]-1,4-naphthalenedione, hydrochloride] | 35.6 % of Control | 28.3 % of Control | – | – | – | IC50 ([1]; hydrochloride): 13.4 µM |
| CCOC(=O)N1CCN(C2=C(Cl)C(=O)c3ccccc3C2=O)CC1.Cl [Example 16, 4-(3-chloro-1,4-dihydro-1,4-dioxo-2-naphthalenyl)-1-piperazinecarboxylic acid, ethyl ester, hydrochloride] | 6.9 % of Control | 9.3 % of Control | – | – | – | IC50 ([1]; e, hydrochloride): 1.5 µM |
| O=C1C(Cl)=C(N2CCN(c3nc4ccccc4s3)CC2)C(=O)c2ccccc21 [Example 17, 2-[4-(2-benzothiazolyl)-1-piperazinyl]-3-chloro-1,4-naphthalenedione, hydrochloride] | – | – | 5.4 µM | 23.1% | 32.6% | – |
| CC(C)COC(=O)N1CCN(C2=C(Cl)C(=O)c3ccccc3C2=O)CC1 [Example 33, 4-(3-Chloro-1,4-dihydro-1,4-dioxo-2-naphthalenyl)-1-piperazinecarboxylic acid, 2-methylpropyl ester] | – | – | 16.5 µM | 31.6% | 27.4% | – |
| O=C1C(Cl)=C(N2CCN(C(=O)c3ccccc3Cl)CC2)C(=O)c2ccccc21 [Example 34, 1-(2-chlorobenzoyl)-4-(3-chloro-1,4-dihydro-1,4-dioxo-2-naphthalenyl)piperazine] | – | – | 1.8 µM | – | – | – |
